Results as given in patent publication US12428424B2, “Estrogen receptor-modulating compounds” (RADIUS PHARMACEUTICALS, INC., priority 2019, dated 2025).

What was measured:
MCF-7 cells = assay: MCF-7 Proliferation Inhibition Assay (E2-induced proliferation, CellTiterGlo); assay type: cell-based; settings: Homo sapiens, MCF7, 168 h, 10 pM dose of E2, 7 days incubation
Method: Proliferation Assay in MCF-7 and T47 D Cells
MCF-7 and T47D cells were stripped for 3 days in phenol red-free RPMI1640 media containing 10% charcoal-stripped fetal bovine serum (CS-FBS) and 1% Penicillin/streptomycin (P/S). Cells (volume of 90 μl/well) were seeded in 96 well plates at a density of 2500 cells/well for MCF-7 cells and 1500 cells/well for T47D cells. On the following day, plates were treated with the test compounds (10× concentration in media, volume of 10 μl/well added) both in the absence and in the presence of two doses of E2 (10 pM and 1 nM). The cells were incubated with test compounds for 7 days. The viability of the cells was assessed using CellTiterGlo (Promega, Cat #G7573) according to the manufacturer's instructions. Growth inhibition curves and IC50 values were calculated using the GraphPadPrism 6.0 software. Data values shown in Table 1 were obtained using the 10 pM dose of E2.

[1] = system: E2-induced increase in uterine weight; assay: Immature rat uterine assay; assay type: in vivo, Sprague-Dawley rat; settings: immature rats, oral dose of 3 mg/kg in combination with E2 (0.01 mg/kg), once daily for three days
Method: Immature Rat Uterine Assay
Sprague-Dawley rat pups were weaned at 19 days of age, randomized into groups (n=6), and administered vehicle (aqueous 20% HPBCD, 10% PEG400 in H2O), E2 (0.01 mg/kg), test compounds (0.1 mg/kg-3 mg/kg) in combination with E2 (0.01 mg/kg), either by subcutaneous injection or by oral gavage, once daily for three consecutive days. Twenty-four hours after the final dose, all animals were killed by carbon dioxide inhalation. Body weights and wet uterine weights were recorded for each animal. GraphPadPrism 6.0 software was used to analyze data.

| IC50 (MCF-7 cells) | SMILES | wet uterine weight [1] |
| --- | --- | --- |
| < 1 nM | Cc1ccccc1-c1c(F)c2c3cn[nH]c3ccc2n1Cc1c(F)cc(CCNCCCF)cc1F [Compound D-106, N-(3,5-difluoro-4-((8-fluoro-7-(o-tolyl)pyrrolo[3,2-e]indazol-6(3H)-yl)methyl)phenethyl)-3-fluoropropan-1-amine] | – |
| < 1 nM | Cc1ccccc1-c1c(Cl)c2c3cn[nH]c3ccc2n1Cc1ccc(CCNCCCF)cc1 [Compound D-109, N-(4-((8-Chloro-7-(o-tolyl)pyrrolo[3,2-e]indazol-6(3H)-yl)methyl)phenethyl)-3-fluoropropan-1-amine] | – |
| < 1 nM | Cc1ccccc1-c1cc2c3c(F)n[nH]c3ccc2n1Cc1ccc(CCNCCCF)cc1F [Compound D-108, 3-Fluoro-N-(3-fluoro-4-((1-fluoro-7-(o-tolyl)pyrrolo[3,2-e]indazol-6(3H)-yl)methyl)phenethyl)propan-1-amine] | – |
| < 1 nM | Cc1ccccc1-c1c(F)c2c3c(F)n[nH]c3ccc2n1Cc1ccc(CCNCCCF)cc1 [Compound D-107, N-(4-((1,8-difluoro-7-(o-tolyl)pyrrolo[3,2-e]indazol-6(3H)-yl)methyl)phenethyl)-3-fluoropropan-1-amine] | – |
| < 1 nM | Cc1ccccc1-c1c(F)c2c3cn[nH]c3ccc2n1Cc1ccc(CCNCCCF)cc1F [Compound D-105, 3-fluoro-N-(3-fluoro-4-((8-fluoro-7-(o-tolyl)pyrrolo[3,2-e]indazol-6(3H)-yl)methyl)phenethyl)propan-1-amine] | suppressed wet uterine weight to baseline |
